Results on 24 compounds are retold here after ChEMBL document CHEMBL1134029, “Heterocyclic derivatives of 2-(3,5-dimethylphenyl)tryptamine as GnRH receptor antagonists” (Bioorg Med Chem Lett, 2001).

In assay [1] the target is T1, Gonadotropin-releasing hormone receptor (Rattus norvegicus, UniProt P30969).
T1 sequence (P30969 whole entry): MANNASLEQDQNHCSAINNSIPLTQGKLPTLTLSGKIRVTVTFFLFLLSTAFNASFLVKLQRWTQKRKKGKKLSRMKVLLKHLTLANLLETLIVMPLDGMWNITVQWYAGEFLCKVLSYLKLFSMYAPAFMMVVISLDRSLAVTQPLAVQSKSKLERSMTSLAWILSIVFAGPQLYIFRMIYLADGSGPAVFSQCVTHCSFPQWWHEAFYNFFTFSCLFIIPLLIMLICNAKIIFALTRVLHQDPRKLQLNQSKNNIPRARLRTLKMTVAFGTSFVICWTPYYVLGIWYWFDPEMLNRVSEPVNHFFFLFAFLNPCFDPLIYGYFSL
Briefly: Inhibition of rat gonadotropin-releasing hormone receptor.

Assay [2] has as its target T2, Gonadotropin-releasing hormone receptor (Homo sapiens, UniProt P30968).
T2 sequence (P30968 whole entry): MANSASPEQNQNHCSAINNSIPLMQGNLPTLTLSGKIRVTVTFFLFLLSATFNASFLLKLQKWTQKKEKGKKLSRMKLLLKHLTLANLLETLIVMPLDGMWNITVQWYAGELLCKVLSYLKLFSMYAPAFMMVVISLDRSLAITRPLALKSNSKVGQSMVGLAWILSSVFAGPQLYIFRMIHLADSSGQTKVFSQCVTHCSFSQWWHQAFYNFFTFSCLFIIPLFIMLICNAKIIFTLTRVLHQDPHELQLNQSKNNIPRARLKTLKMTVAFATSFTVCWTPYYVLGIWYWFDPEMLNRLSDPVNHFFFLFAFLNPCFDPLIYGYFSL
Briefly: Inhibitory activity evaluated against human Gonadotropin-releasing hormone receptor.

Structures are written as SMILES. A value given as a limit tells only on which side of the number the result lay.

In assay [1], `Cc1cc(C)cc(-c2[nH]c3ccccc3c2CCNCCCCc2ccc(NS(C)(=O)=O)nc2)c1` returned an IC50 of 0.045 µM. On to `Cc1cc(C)cc(-c2[nH]c3ccccc3c2CCNCCCCc2ccc(O)cc2)c1`, for which the IC50 amounted to 0.357 µM in assay [2] and 0.027 µM in assay [1]. In assay [1], `Cc1cc(C)cc(-c2[nH]c3ccccc3c2CCNCCCCc2ccccn2)c1` showed an IC50 of 0.45 µM. Same read-out and setting: the result for `Cc1cc(C)cc(-c2[nH]c3ccccc3c2CCNCCc2ccncc2)c1` reads 0.16 µM; that for `Cc1cc(C)cc(-c2[nH]c3ccccc3c2CCNCc2cccnc2)c1`, 4.5 µM; that for `COc1ccc(CCCCNCCc2c(-c3cc(C)cc(C)c3)[nH]c3ccccc23)cn1`, 0.09 µM. Same read-out and setting: the result for `Cc1cc(C)cc(-c2[nH]c3ccccc3c2CCNCCCCc2ccc3c(n2)NCCC3)c1` reads 1.26 µM; that for `Cc1cc(C)cc(-c2[nH]c3ccccc3c2CCNCc2ccncc2)c1`, 9 µM; that for `Cc1cc(C)cc(-c2[nH]c3ccccc3c2CCNCCCCc2ccc(N)nc2)c1`, 0.041 µM. Turning to `Cc1cc(C)cc(-c2[nH]c3ccccc3c2CCNCCCCc2ccc(NS(C)(=O)=O)cc2)c1`, the IC50 worked out at 0.17 µM in assay [2] and 0.007 µM in assay [1]. In assay [1], `Cc1cc(C)cc(-c2[nH]c3ccccc3c2CCNCCCCc2cncnc2)c1` gave an IC50 of 0.27 µM. Still for that read-out and setting: the same measure for `CC(=O)Nc1ccc(CCCCNCCc2c(-c3cc(C)cc(C)c3)[nH]c3ccccc23)cn1`: 0.12 µM; for `Cc1cc(C)cc(-c2[nH]c3ccccc3c2CCNCCc2ccccn2)c1`: 2.17 µM; for `Cc1cc(C)cc(-c2[nH]c3ccccc3c2CCNCCCc2ccncc2)c1`: 0.21 µM. On the same count and under the same terms, the result for `Cc1cc(C)cc(-c2[nH]c3ccccc3c2CCNCc2ccccn2)c1` reads more than 10 µM; that for `Cc1cc(C)cc(-c2[nH]c3ccccc3c2CCNCCCc2cccnc2)c1`, 0.2 µM. The same measure, in the same setting: the result for `Cc1cc(C)cc(-c2[nH]c3ccccc3c2CCNCCCCc2cnc3ccccc3c2)c1` reads 0.036 µM; that for `Cc1cc(C)cc(-c2[nH]c3ccccc3c2CCNCCCCCc2cccnc2)c1`, 0.05 µM; that for `Cc1cc(C)cc(-c2[nH]c3ccccc3c2CCNCCCCc2ccc(=O)[nH]c2)c1`, 0.057 µM.

`Cc1cc(C)cc(-c2[nH]c3ccccc3c2CCNCCCCc2cccnc2)c1` came in with an IC50 in assay [1] of 0.04 µM.

Turning to `Cc1cc(C)cc(-c2[nH]c3ccccc3c2CCNCCc2cccnc2)c1`, the midpoint of inhibition in assay [1], the IC50, lay at 0.2 µM. Same read-out and setting: the result for `Cc1cc(C)cc(-c2[nH]c3ccccc3c2CCNCCCCCc2ccncc2)c1` reads 0.15 µM; that for `Cc1cc(C)cc(-c2[nH]c3ccccc3c2CCNCCCCc2ccncc2)c1`, 0.016 µM. On the same count and under the same terms, the same measure for `Cc1cc(C)cc(-c2[nH]c3ccccc3c2CCNCCCCc2cnc[nH]2)c1`: 0.45 µM.
